Measured values as given in patent US11926623B2, “Heterocycle derivatives as pesticides” (Bayer Aktiengesellschaft, priority 2018, dated 2024).
Where two headings read alike, the source gives them in different places.

Assays:
Ctenocephalides felis = Ctenocephalides felis oral test; type: in vivo; settings: 48 h, 100 ppm in citrated cattle blood, unfed adult cat fleas, after 2 days, read-out: efficacy (kill in %)
Method: Ctenocephalides felis—Oral Test [table] To produce a suitable active compound preparation, 10 mg of active compound are mixed with 0.5 ml of dimethyl sulfoxide. Dilution with citrated cattle blood gives the desired concentration. About 20 unfed adult cat fleas (Ctenocephalides felis) are placed into a chamber which is closed at the top and bottom with gauze. A metal cylinder whose bottom end is closed with parafilm is placed onto the chamber. The cylinder contains the blood/active compound formulation, which can be imbibed by the fleas through the parafilm membrane. After 2 days, the kill in % is determined. 100% means that all of the fleas have been killed; 0% means that none of the fleas have been killed.

Myzus persicae [1] = test: Myzus persicae oral test; type: in vivo; settings: 120 h, mixed population of green peach aphids, after 5 days, read-out: efficacy
Method: Myzus persicae—Oral Test [table] To produce a suitable preparation of active compound, 1 part by weight of active compound is dissolved using the specified parts by weight of solvent and made up with water until the desired concentration is attained. 50 μl of the active ingredient formulation are transferred into microtitre plates and made up to a final volume of 200 μl with 150 μl of IPL41 insect medium (33%+15% sugar). Subsequently, the plates are sealed with parafilm, which a mixed population of green peach aphids (Myzus persicae) within a second microtitre plate is able to puncture and imbibe the solution through. After 5 days, the efficacy in % is determined. 100% means that all the aphids have been killed; 0% means that no aphids have been killed.

Boophilus microplus = Boophilus microplus injection test; type: in vivo; settings: 20 μg/animal, injection into engorged adult female cattle ticks, assessed after 7 days by laying of fertile eggs
Method: Boophilus microplus—Injection Test [table] To produce a suitable active compound preparation, 10 mg of active compound are mixed with 0.5 ml of solvent and the concentrate is diluted to the desired concentration with solvent. 1 μl of the active compound solution is injected into the abdomen of 5 engorged adult female cattle ticks (Boophilus microplus). The animals are transferred into dishes and kept in a climate-controlled room. Efficacy is assessed after 7 days by laying of fertile eggs. Eggs which are not visibly fertile are stored in a climate-controlled cabinet until the larvae hatch after about 42 days. An efficacy of 100% means that none of the ticks has laid any fertile eggs; 0% means that all the eggs are fertile.

Tetranychus urticae = Tetranychus urticae spray test, OP-resistant; type: in vivo; settings: 20 g/ha, sprayed bean leaf discs, all stages of the greenhouse red spider mite, after 6 days
Method: Tetranychus urticae—Spray Test, OP-Resistant
(§1) To produce a suitable active compound preparation, 1 part by weight of active compound is dissolved using the stated parts by weight of solvent and made up with water containing an emulsifier concentration of 1000 ppm until the desired concentration is attained. To produce further test concentrations, the formulation is diluted with emulsifier-containing water.
Discs of bean leaves (Phaseolus vulgaris) infested with all stages of the greenhouse red spider mite (Tetranychus urticae) are sprayed with an active compound formulation of the desired concentration.
After 6 days, the efficacy in % is determined. 100% means that all the spider mites have been killed; 0% means that no spider mites have been killed.

Spodoptera frugiperda = Spodoptera frugiperda spray test; type: in vivo; settings: foliar, 168 h, sprayed maize leaf discs, fall armyworm caterpillars, after 7 days, read-out: efficacy
Method: Spodoptera frugiperda—Spray Test [table] To produce a suitable active compound preparation, 1 part by weight of active compound is dissolved using the stated parts by weight of solvent and made up with water containing an emulsifier concentration of 1000 ppm until the desired concentration is attained. To produce further test concentrations, the formulation is diluted with emulsifier-containing water. Leaf discs of maize (Zea mays) are sprayed with an active compound formulation of the desired concentration and, after drying, populated with caterpillars of the fall armyworm (Spodoptera frugiperda). After 7 days, the efficacy in % is determined. 100% means that all the caterpillars have been killed; 0% means that no caterpillar has been killed.

Myzus persicae [2] = test: Myzus persicae spray test; type: in vivo; settings: foliar, 120 h, sprayed Chinese cabbage leaf discs, all stages of the green peach aphid, after 5 days, read-out: efficacy
Method: Myzus persicae—Spray Test [table] To produce a suitable active compound preparation, 1 part by weight of active compound is dissolved using the stated parts by weight of solvent and made up with water containing an emulsifier concentration of 1000 ppm until the desired concentration is attained. To produce further test concentrations, the formulation is diluted with emulsifier-containing water. Discs of Chinese cabbage leaves (Brassica pekinensis) infested by all stages of the green peach aphid (Myzus persicae) are sprayed with an active compound formulation of the desired concentration. After 5 days, the efficacy in % is determined. 100% means that all the aphids have been killed; 0% means that no aphids have been killed.

Phaedon cochleariae = Phaedon cochleariae spray test; type: in vivo; settings: 100 g/ha, sprayed Chinese cabbage leaf discs, mustard beetle larvae, after 7 days
Method: Phaedon cochleariae—Spray Test
as §1
Discs of Chinese cabbage leaves (Brassica pekinensis) are sprayed with an active compound formulation of the desired concentration and, after drying, populated with larvae of the mustard beetle (Phaedon cochleariae).
After 7 days, the efficacy in % is determined. 100% means that all the beetle larvae have been killed; 0% means that no beetle larvae have been killed.

[3] = log P by HPLC on reversed-phase column (C18), EEC Directive 79/831 Annex V.A8; type: physicochemical
Method: The log P values were determined according to EEC Directive 79/831 Annex V.A8 by HPLC (high-performance liquid chromatography) on a reversed-phase column (C18) using the following methods: ^[a] […] Calibration was carried out using a homologous series of straight-chain alkan-2-ones (having 3 to 16 carbon atoms) with known log P values. The values between successive alkanones are determined by linear regression.

SMILES | pest or weed control at 100 ppm (Ctenocephalides felis) [%] | pest or weed control at 4 ppm (Myzus persicae [1]) [%] | efficacy (Boophilus microplus) [%] | efficacy (Tetranychus urticae) [%] | pest or weed control at 100 g/ha (Spodoptera frugiperda) [%] | pest or weed control at 100 g/ha (Myzus persicae [2]) [%] | efficacy (Phaedon cochleariae) [%] | chromatographic logP ([3]; LC-UV in the acidic range, formic acid in water / acetonitrile, read-out: log P[acidic]) | chromatographic logP ([3]; LC-UV in the neutral range, ammonium carbonate in water / acetonitrile, read-out: log P[neutral])
CCS(=O)(=O)c1c(-c2nc3cc(C(F)(F)F)cnc3n2C)nc(-n2cc(Br)c(C3CC3)n2)n1C [Example I-10] | 90 | 100 | 90 | 90 | 100 | 90 | 100 | – | –
CCS(=O)(=O)c1c(-c2nc3cc(C(F)(F)F)cnc3n2C)nc(-c2ccc(C3(C#N)CC3)cc2)n1C [Example I-5, 1-(4-{5-(Ethylsulfonyl)-1-methyl-4-[3-methyl-6-(trifluoromethyl)-3H-imidazo[4,5-b]pyridin-2-yl]-1H-imidazol-2-yl}phenyl)cyclopropanecarbonitrile] | 100 | 100 | – | – | 100 | 100 | 100 | 3.14 | 3.07
CCS(=O)(=O)c1c(-c2nc3cc(C(F)(F)F)cnc3n2C)nc(-c2cnn(C3CC3)c2)n1C [Example I-6] | 100 | 100 | 95 | – | 100 | 100 | 100 | – | –
